The term IC50 denotes the concentration needed to halve the response being measured. For orientation: inhibition means the share of the control response that was lost under treatment.

One test deals with MAPK phosphorylation in PANC-1 pancreatic cancer cell line. The test can be described thus: MAPK cell-based phosphorylation assay (cell-direct ELISA, EGF stimulation). Conditions: Homo sapiens. The procedure:
Cell lines: Tumor-derived pancreatic cancer cell lines PANC-1 were purchased from ATCC and were maintained according to ATCC recommendation.
Method: Cells were plated at 7500 cells/well density in 96-wells plate, starved over night, and the small molecules to be tested were added to the cells in the final concentration of 30 μM with 0.3% DMSO for 6 hours incubation at 37° C. For IC50 value determination, serial dilutions of compounds were added to cells under the same conditions. Next, cells were stimulated with 1.5 ng/ml EGF for 15 min. followed by cell fixation with 4% Formaldehyde in PBS at RT for 20 min. Phosphorylation level of MAPK was determined by Cell-direct ELISA.
Cell-direct ELISA: For each well, cells were permeabilized with PBS-Triton 0.1%, quenched with H2O2 0.6% in PBS-Triton 0.1%, and probed with anti-phospho-MAPK antibodies (R&D Systems) followed by HRP-conjugated secondary antibody (Jackson Immunoresearch, West Grove, Pa.). Next, a solution 50 μM of the fluorescent substrate AmpliFlu Red (Sigma) was added and incubated at RT for 20 min. At the end of the incubation time, fluorescence was measured at 595 nm on a microplate reader (AF2200; Eppendorf, Inc., Hamburg, Germany).
For orientation: ELISA stands for enzyme-linked immunosorbent assay.
Regarding `CCc1cc(NNC(=O)c2ccc(C#N)cc2)nc(-c2ccccn2)n1` [drawing 1041], the IC50 lay in the range of 2 to 10 µM.
The molecule `O=C(c1csc2c(O)nc(-c3ccccn3)nc12)N1CCOC(c2nccs2)C1` (stereo not drawn) [drawing 1129] came in with an IC50 above 30 µM.
Same read-out and setting: as for `COCC(C)Nc1nc(-c2ccccn2)nc2sc(C)c(-c3ccccc3)c12` (stereo not drawn) [drawing 1040], the figure is 11 to 30 µM.
In the case of `Oc1nc(-c2ccccn2)nc2c(-c3ccc(F)cc3F)csc12` [drawing 1210], the half-maximal inhibitory concentration (IC50) fell in the range of 2 to 10 µM.
On the same count and under the same terms, then `N#Cc1ncn(-c2nc(-c3ccccn3)nc3sc(-c4ccccc4)cc23)n1` [drawing 1083], with 2 to 10 µM.
Consider `Oc1nc(-c2ccccn2)nc2c(-c3ccccc3Cl)csc12` [drawing 1075], for which the IC50 is below 2 µM.

The test is the same for the next values; noted with them: Homo sapiens, * = tested at 10 μM.
Regarding `Oc1nc(-c2ccccn2)nc2c(-c3ccccc3)c(-c3ccncc3)sc12` [drawing 1308], testing at 10 µM gave an inhibition of 0%.
`Nc1nc(O)c2sc(-c3cccc(C(=O)N4CCC(O)C4)c3)cc2n1` (stereo not drawn) [drawing 1303] had an inhibition at 10 µM of 0%.
On the same count and under the same terms, as for `O=C(NCCc1cnc(O)nc1)c1csc2nc(-c3ccccn3)nc(N3CCS(=O)(=O)CC3)c12` [drawing 1196], the figure is 1 to 25%; as for `Oc1cccc(-c2csc3c(O)nc(-c4ccccn4)nc23)n1` [drawing 1259], 51 to 75%; as for `COCCNc1nc(-c2nccn2C)nc2sc(-c3ccccc3)c(-c3ccc(OC)cc3)c12` [drawing 1349], 76 to 100%.
On the same count and under the same terms, then `Oc1nc(-c2ccccn2)nc2c(-c3ccc(OC4CCCC4)cc3)csc12` [drawing 1203], with 25 to 50%; and `CC(C)COc1ccc(-c2c(-c3ccccc3)sc3c(O)nc(-c4nccn4C)nc23)cn1` [drawing 1347], with 51 to 75%; and `Nc1cccc(-c2csc3c(O)nc(-c4ccccn4)nc23)n1` [drawing 1274], with 51 to 75%.
The same measure, in the same setting: then `Cc1nn(C(C)C)cc1-c1csc2c(O)nc(-c3ccccn3)nc12` [drawing 1267], with 0%; and `Cn1ccnc1-c1nc(O)c2scc(-c3cccc(Cl)c3)c2n1` [drawing 1377], with 25 to 50%.
The molecule `CC(C)OCCNc1nc(-c2nccn2C)nc2sc(-c3ccccc3)c(-c3ccccc3)c12` [drawing 1327] yielded an inhibition at 10 µM of 76 to 100%.
The same measure, in the same setting: then `Nc1nc(-c2ccccn2)nc2scc(C(=O)O)c12` [drawing 1242], with 1 to 25%; and `O=C(c1csc2c(O)nc(-c3ccccn3)nc12)N1CCNC(c2cn[nH]c2)C1` (stereo not drawn) [drawing 1200], with 25 to 50%; and `Oc1nc(-c2ccccn2)nc2c(-c3ccc(OC(F)F)cc3F)csc12` [drawing 1215], with 51 to 75%.
Same read-out and setting: as for `COC(C)(C)c1ccc(-c2csc3c(O)nc(-c4nccn4C)nc23)cc1` [drawing 1378], the figure is 25 to 50%; as for `CC(C)COc1ccc(-c2csc3c(O)nc(-c4nccn4C)nc23)cn1` [drawing 1372], 25 to 50%; as for `CC(C)COc1ccc(-c2csc3c(O)nc(-c4cn(C)cn4)nc23)cn1` [drawing 1365], 1 to 25%.
Still for that read-out and setting: as for `OCC1(c2ccc(-c3nc(-c4ccccn4)nc(-c4ccc(C5(CO)CC5)cc4)c3Oc3ccccc3)cc2)CC1` [drawing 1292], the figure is 51 to 75%; as for `Oc1nc(-c2ccccn2)nc2c(-c3ccc(F)cc3F)csc12` [drawing 1210], 76 to 100%.
The molecule `COc1ccc(-c2csc3c(O)nc(-c4nccn4C)nc23)cn1` [drawing 1373] yielded an inhibition at 10 µM of 51 to 75%.
Same read-out and setting: then `Cc1cnc(-c2ccccn2)nc1NC(=O)Cc1ccc2cnccc2c1` [drawing 1198], with 25 to 50%; and `COCCNc1nc(-c2ccccn2)nc(-c2cccc(OCCN(C)C)c2)c1Oc1ccccc1` [drawing 1289], with 25 to 50%.
On the same count and under the same terms, as for `Cn1ccnc1-c1nc(O)c2scc(-c3ccc(C(C)(C)C)cc3)c2n1` [drawing 1379], the figure is 25 to 50%; as for `Oc1nc(-c2ccccn2)nc2c(C3CCC3)csc12` [drawing 1250], 76 to 100%.
Same read-out and setting: as for `COCCNc1nc(-c2nccn2C)nc2sc(-c3cccc(OC)c3)c(-c3ccccc3)c12` [drawing 1346], the figure is 76 to 100%; as for `Cn1ccnc1-c1nc(O)c2scc(-c3ccccc3)c2n1` [drawing 1374], 76 to 100%.
The molecule `Cc1cc(OC(F)F)ccc1-c1csc2c(O)nc(-c3ccccn3)nc12` [drawing 1217] came in with an inhibition at 10 µM of 1 to 25%.
The same measure, in the same setting: then `Cc1sc2c(O)nc(-c3ccccn3)nc2c1-c1ccccc1Cl` [drawing 1275], with 76 to 100%.
Same read-out and setting: then `COCCNc1nc(-c2nccn2C)nc2sc(-c3ccccc3)c(-c3ccccn3)c12` [drawing 1382], with 51 to 75%.

The test is the same for the next values; noted with them: Homo sapiens, at 30 μM.
`COCCN(CCOC)c1nc(-c2ccccn2)nc2scc(C(=O)NCCc3cnc(O)nc3)c12` [drawing 1171] displayed an inhibition at 30 µM of 25 to 50%.
Same read-out and setting: as for `O=C(NCCc1ccc(O)nc1)c1csc2nc(-c3ccccn3)nc(N3CCOCC3)c12` [drawing 1168], the figure is 1 to 25%; as for `Cc1ccc(CC(=O)Nc2nnc(-c3ccccn3)[nH]2)cn1` [drawing 1012], 1 to 25%.
On the same count and under the same terms, as for `O=C(c1csc2c(O)nc(-c3ccccn3)nc12)N1CCc2ccccc2CC1` [drawing 1072], the figure is 25 to 50%.
Still for that read-out and setting: then `COc1ccc(CN(CC[S+]([O-])c2cc(Cl)ccc2Cl)C2CC2)cc1` (stereo not drawn) [drawing 1050], with 25 to 50%; and `CCCNC(=O)CN1CCN(c2nc(-c3ccccn3)nc3sc(-c4ccccc4)cc23)CC1` [drawing 1086], with 76 to 100%.
On to `CCc1cc(NNC(=O)c2ccc(C#N)cc2)nc(-c2ccccn2)n1` [drawing 1041], for which the inhibition at 30 µM lay within 76 to 100%.
`CN(CC(=O)N1CCOCC1)c1nc(-c2ccccn2)nc2scc(-c3ccccc3)c12` [drawing 1094] returned an inhibition at 30 µM of 1 to 25%.
`c1ccc(-c2csc3nc(-c4ccccn4)nc(N4CCN(CC5CCCO5)CC4)c23)cc1` (stereo not drawn) [drawing 1088] gave an inhibition at 30 µM of 1 to 25%.
The molecule `CNC(=O)CN1CCN(c2nc(-c3ccccn3)nc3scc(-c4ccccc4)c23)CC1` [drawing 1092] came in with an inhibition at 30 µM of 1 to 25%.
`O=C(c1csc2c(O)nc(-c3ccccn3)nc12)N1CCOC(c2nccs2)C1` (stereo not drawn) [drawing 1129]: the inhibition at 30 µM was in the range of 25 to 50%.
Same read-out and setting: as for `COc1ccc(C2CN(C(=O)c3csc4c(O)nc(-c5ccccn5)nc34)CCN2)cc1` (stereo not drawn) [drawing 1151], the figure is 25 to 50%.
`O=C(Cn1c(=O)oc2ccccc21)Nc1nnc(-c2ccccn2)[nH]1` [drawing 1010] returned an inhibition at 30 µM of 1 to 25%.
On the same count and under the same terms, then `OC1CCCN(c2nc(-c3ccccn3)nc3scc(-c4ccccc4)c23)C1` (stereo not drawn) [drawing 1102], with 51 to 75%; and `O=C(Nc1nnc(-c2ccccn2)[nH]1)c1ccn(-c2ccccc2)n1` [drawing 998], with 1 to 25%.
The same measure, in the same setting: as for `COc1ccccc1C1CN(C(=O)c2csc3c(O)nc(-c4ccccn4)nc23)CCO1` (stereo not drawn) [drawing 1148], the figure is 1 to 25%.
`CC(=O)N1CCN(c2nc(-c3ccccn3)nc3scc(-c4ccccc4)c23)CC1` [drawing 1109] returned an inhibition at 30 µM of 25 to 50%.
On the same count and under the same terms, as for `O=S1(=O)CCC(Nc2nc(-c3ccccn3)nc3scc(-c4ccccc4)c23)C1` (stereo not drawn) [drawing 1100], the figure is 1 to 25%; as for `O=C(Nc1nnc(-c2ccccn2)[nH]1)C1CCCN(c2cnccn2)C1` (stereo not drawn) [drawing 1019], 1 to 25%.
The same measure, in the same setting: as for `O=C(Nc1nnc(-c2ccccn2)[nH]1)C1CCn2c(cnc2-c2ccccc2)C1` (stereo not drawn) [drawing 997], the figure is 1 to 25%; as for `O=C(NCCc1cccnc1)c1csc2c(O)nc(-c3ccccn3)nc12` [drawing 1071], 1 to 25%.
For the molecule `CS(=O)(=O)Cc1ccc(C(=O)Nc2nc(-c3ccccn3)cs2)cc1` [drawing 1029], the inhibition at 30 µM lay within 1 to 25%.
The same measure, in the same setting: then `COCC(C)Nc1nc(-c2ccccn2)nc2sc(C)c(-c3ccccc3)c12` (stereo not drawn) [drawing 1040], with 76 to 100%; and `CN(CCCc1n[nH]c(N)c1C#N)c1nc(-c2ccccn2)nc2sc(-c3ccccc3)cc12` [drawing 1090], with 25 to 50%; and `CS(=O)(=O)CCCNC(=O)c1csc2nc(-c3ccccn3)nc(N3CCOCC3)c12` [drawing 1170], with 25 to 50%.
Molecule `O=C(CCc1c[nH]c2ccccc12)Nc1nnc(-c2ccccn2)[nH]1` [drawing 1001] showed an inhibition at 30 µM of 25 to 50%.
The same measure, in the same setting: then `COc1cccc(C2CN(C(=O)c3csc4c(O)nc(-c5ccccn5)nc34)CCO2)c1` (stereo not drawn) [drawing 1126], with 1 to 25%; and `CCOC(=O)c1ccnc(N2CCC(C)CC2c2ccc(CC)o2)c1[N+](=O)[O-]` (stereo not drawn), with 25 to 50%; and `CCCOc1ccc2ccccc2c1CN(C)S(=O)(=O)N1CC(C)OC(C)C1` (stereo not drawn) [drawing 1051], with 1 to 25%.
`COc1ccc2c(c1)CCC2C(=O)Nc1ccnc(-c2ccccn2)n1` (stereo not drawn) [drawing 1159] showed an inhibition at 30 µM of 1 to 25%.
Consider `O=C(CN1CCN(c2nc(-c3ccccn3)nc3scc(-c4ccccc4)c23)CC1)N1CCCC1` [drawing 1104], for which the inhibition at 30 µM lay within 1 to 25%.
The same measure, in the same setting: as for `O=C(Nc1nc(-c2ccccn2)cs1)c1ccncc1` [drawing 1034], the figure is 25 to 50%; as for `N#Cc1ncn(-c2nc(-c3ccccn3)nc3sc(-c4ccccc4)cc23)n1` [drawing 1083], 76 to 100%.
Same read-out and setting: as for `CN(Cc1cnn(C)c1)c1nc(-c2ccccn2)nc2scc(-c3ccccc3)c12` [drawing 1089], the figure is 25 to 50%; as for `COCCC(C)Nc1nc(-c2ccccn2)nc2sccc12` (stereo not drawn) [drawing 1115], 25 to 50%.
Molecule `Oc1nc(-c2ccccn2)nc2c(-c3ccccc3Cl)csc12` [drawing 1075] registered an inhibition at 30 µM of 76 to 100%.
The molecule `COc1cc(N2CCN(C(=O)c3csc4c(O)nc(-c5ccccn5)nc34)CC2)ccc1O` [drawing 1179] gave an inhibition at 30 µM of 25 to 50%.
